According to patent US5990137A, “Method of inhibiting NADPH oxidase” (Idun Pharmaceuticals, Inc., priority 1998, dated 1999):

How the values were obtained:
Jurkat cells = assay: Cytotoxicity assay employing Jurkat cells (MTT); type: cell-based; conditions: Jurkat clone E6-1, MTT, 37° C. overnight
Experimental: This Assay was performed as set forth in Hansen et al., Journal of Immunological Methods, 119:203-210 (19930; Mosmann, Journal of Immunological Methods, 65:55-63 (1983); and Slater et al., Biochem. Ciophys. Acta, 77:383 (1963); except as noted below.
Compounds from the following Examples were tested for cytotoxicity using MTT (i.e., 3-[4,5-Dimethylthiazol-2-yl]-2,5-diphenyltetrazolium bromide; Thiazolyl Blue (Sigma, St. Louis, Mo.)).
MTT was dissolved in basal culture media at a concentration of 5 mg/ml. If necessary, it was briefly warmed at 37° C. to fully dissolve, passed through a sterile filter, and aliquoted and stored at -20° C. until use.
The Extraction Buffer used was a solution composed of 20% SDS, 2.5% Acetic Acid (80% 6 stock solution), 2.5% 1N Hcl, 50% Dimethylformamide/50% dissolved in distilled water, SDS was dissolved into buffer components with gentle heating and stirring and the resultant solution was filtered and stored until use.
The MTT solution was added in an amount equal to 10% of the culture volume to each well in a 96-well plate containing 100,000 Jurkat cells/well.
The wells were then incubated for 0.5 to 2 hours in standard culture conditions. A volume of extraction buffer equal to the culture volume was added. The 96-well plate was then sealed. The formazan crystals were allowed to extract at 37° C. for four hours. The plate was read on a spectrophotometer [Spectramax 250, Molecular Devices, Sunnyvale, Calif.] at an absorbance wavelength of 560 nm. (The background absorbance measured at 650 nm was subtracted from the value measured at 560 nm.)
The Jurkat cells (Jurkat clone E6-1) were grown using standard conditions supplied by ATCC (American Type Culture Collection--Rockville, Md.).
The compounds diluted in medium (RPMI 1640 plus 10% fetal bovine serum) stock solution of 100 μM, then this stock solution was further diluted 3-fold before testing in the instant assay.
2-Hydroxy-3-methoxy-E-nitrostyrene tested at 100 μM as death control cells, incubated under the above conditions at 37° C. overnight.
The Extraction Buffer (100 μl) was added to each well and the resultant suspension was incubated 4 hours at 37° C.
The results from this procedure are set forth above in Table 1 in the column marked "Cytotox (MTT/Jurkat)". […] Toxicity was rated "3" if dead cells and >50% reduction in MTT absorbance at 1 μM test compound.

Xanthine oxidase = biological target: T1, Xanthine oxidase (Bos taurus, UniProt P80457); assay: Xanthine oxidase assay (superoxide by hypoxanthine/xanthine oxidase, Lucigenin); type: biochemical; conditions: hypoxanthine 150 μM, buttermilk xanthine oxidase, 37° C.; for IC50: read-out: Xanthine Oxidase Inhibition IC50 (Integral)
T1 construct: purchased Sigma x-1875; host or cells: buttermilk

[1] = tested on: isolated neutrophils (opsonized zymosan-stimulated oxidative burst); assay: Measurement of chemiluminescence of isolated neutrophils (neutrophil burst, Lucigenin); type: cell-based; conditions: for IC50 / inhibition at 50 µM: Neutrophil; for inhibition at 50 µM: percent inhibition at 50 μM, single concentration, read-out: Neutrophil Burst Screen Value (% @ 50 μM)
Experimental: Whole blood (150 ml) was anticoagulated with Acid Citrate Dextrose (ACD) using a ratio of 1:5 ACD to blood.
All steps are to be performed using polypropylene plastic ware.
a. Whole blood (60 ml) was added to each of three 100 ml polypropylene graduated cylinders containing 30 ml of […]. The cylinders were covered securely with Parafilm. The blood was allowed to sediment for approximately 1 hour at room temperature.
b. The turbid straw-colored layer was harvested from the top of the cylinders into 50 ml conical polypropylene tubes. The white blood cells were pelleted by centrifugation at 240×g (Sorvall at 1200 rpm) for 12 min. at 4° C. with the brake on low.
c. The supernatant was removed by aspiration and the pooled pellet resuspended in 4-50 ml cold PBS (w/o Ca, Mg). It was then centrifuged at 240×g (Sorvall at 1200 rpm) for 6 min. at 4° C. with the brake on high.
a. The supernatant was aspirated and the pellet resuspended in 12 ml of cold cell culture-grade water. The pellet was titrated gently with a pipet for exactly 30 seconds then 4 ml of cold 0.6 M KCl was added. It was then QSed to 50 ml with cold PBS (w/o Ca, Mg) and centrifuged at 300×g (Sorvall TY 6000D at 1400 rpm) for 6 min. at 4° C. with the brake on high.
b. Step 2.a. was repeated once more.
a. The supernatant was aspirated and the cells were resuspended in 2.5 ml cold PBS (w/o Ca, Mg). The cell suspension was carefully layered over 3 ml Ficoll-Hypaque in a 15 ml polypropylene conical tube. It was then centrifuged at 400×g (Sorvall at 1900 rpm) for 30 min. at 4° C. with the brake on low.
b. Aspiration occurred down to the neutrophil pellet. The pellet was resuspended fin cold PBS (w/o Ca, Mg) and transferred to a 50 ml conical tube. It was then QSed to 50 ml with cold PBS (w/o Ca, Mg) and centrifuged at 300×g (Sorvall at 1400 rpm) for 6 min. at 4° C. with the brake on high.
d. The supernatant was aspirated and the pellet resuspended in 50 ml cold PBS (w/o Ca, Mg) and centrifuged at 300×g (Sorvall at 1400 rpm) for 6 min. with the brake on high.
e. The supernatant was aspirated and the neutrophil pellet resuspended in 4.0 ml cold PBS (w/o Ca, Mg). It was kept on ice. Trypan blue (10 μl) was diluted (1:40) and the cells were counted using a hemacytometer. The cell number and viability by Trypan […] exclusion were determined and the results recorded. The cells were diluted to 5.0×10^6 cells/ml with cold PBS-G (with Ca, Mg) prior to plating for the assay.
2. […] The suspension was centrifuged and the particles resuspended in 7 ml of PBS-G (with Ca, Mg)(18 mg/ml). It was stored on ice until used (briefly vortexed prior to pipetting).
4. PBS-G (10 μl) (with Ca, Mg) was added to the wells in a white 96 well plate.
6. The compound dilutions (10 μl) were added to the appropriate wells.
7. The cell prep was diluted to 5.0×10^6 cells/ml with PBS-G (with Ca, Mg) in a separate multipipette trough.
8. The neutrophil suspension (20 μl) was added to the appropriate wells.
9. The plate was incubated at 37° C. for three minutes.
10. Zymosan (10 μl of 18 mg/ml) was added to the appropriate wells.
11. The plate was read on the luminometer (Labsystems Luminoskan, Needham Heights, Mass.) for 14 min. at 37° C. on the kinetic mode and the results recorded using the software DeltaSoft.
12. The plate data was exported into Excel to determine percent of control and derive the means and standard deviations for the data. The IC50 was determined graphically from the data and plotted using SigmaPlot. For cases where one concentration (50 μM) was tested, percent inhibition was compared to that seen with 50 μM apocynin.
13. The results are set forth below in Table 1 as "Neutrophil Burst IC50 (Lucigenin)". The results for 50 μM inhibition in the single assay are reported as "Neutrophil Burst Screen Value (% @ 50 μM)".

[2] = tested on: monocytes (TNF secretion); assay: Specificity: secretion of TNF by monocytes; type: cell-based; conditions: 50 μM; LPS stimulated or unstimulated monocytes
Experimental: (§1) To assess specificity of action, the title compound (hereinafter "Azine") was tested for its ability to inhibit other functions of stimulated neutrophils and monocytes. The procedure followed was set forth in Mrowietz et al., British Journal of Dermatology, 127:382-386 (1992); Snyderman, Ralph, Methods for Studying Mononuclear Phagocytes, ed. Adams, Edelson, and Koren, New York, Academic Press, pp. 535-547 (1981); Sozzani et al., The Journal of Immunology, Oct. 1, 1991, pp. 2215-2221; Zigmond et al., The Journal of Experimental Medicine, 137:387 (1973); Wahl et al., Cell Immunol., 85:373 (1984); Wahl et al., Current Protocols in Immunology, ed. Coligan, Kruisbeek, Margulies, Shevach, and Strober, p. 7.6.1 (1991); Hogquist et al., J. Immunol, 147:2181 (1991). The Azine (50 μM) had no effect on chemotaxis of neutrophils activated by the chemotactic peptide f-Met-Leu-Phe.

[3] = tested on: monocytes (IL-1 secretion); assay: Specificity: secretion of IL-1 by monocytes; type: cell-based; conditions: 50 μM; LPS stimulated or unstimulated monocytes
Experimental: as §1

neutrophils = assay: Specificity: chemotaxis of neutrophils activated by f-Met-Leu-Phe; type: cell-based; conditions: 50 μM
Experimental: as §1

[4] = 14 min, opsonized zymosan, lucigenin, 37° C.

T1 sequence (P80457 whole entry): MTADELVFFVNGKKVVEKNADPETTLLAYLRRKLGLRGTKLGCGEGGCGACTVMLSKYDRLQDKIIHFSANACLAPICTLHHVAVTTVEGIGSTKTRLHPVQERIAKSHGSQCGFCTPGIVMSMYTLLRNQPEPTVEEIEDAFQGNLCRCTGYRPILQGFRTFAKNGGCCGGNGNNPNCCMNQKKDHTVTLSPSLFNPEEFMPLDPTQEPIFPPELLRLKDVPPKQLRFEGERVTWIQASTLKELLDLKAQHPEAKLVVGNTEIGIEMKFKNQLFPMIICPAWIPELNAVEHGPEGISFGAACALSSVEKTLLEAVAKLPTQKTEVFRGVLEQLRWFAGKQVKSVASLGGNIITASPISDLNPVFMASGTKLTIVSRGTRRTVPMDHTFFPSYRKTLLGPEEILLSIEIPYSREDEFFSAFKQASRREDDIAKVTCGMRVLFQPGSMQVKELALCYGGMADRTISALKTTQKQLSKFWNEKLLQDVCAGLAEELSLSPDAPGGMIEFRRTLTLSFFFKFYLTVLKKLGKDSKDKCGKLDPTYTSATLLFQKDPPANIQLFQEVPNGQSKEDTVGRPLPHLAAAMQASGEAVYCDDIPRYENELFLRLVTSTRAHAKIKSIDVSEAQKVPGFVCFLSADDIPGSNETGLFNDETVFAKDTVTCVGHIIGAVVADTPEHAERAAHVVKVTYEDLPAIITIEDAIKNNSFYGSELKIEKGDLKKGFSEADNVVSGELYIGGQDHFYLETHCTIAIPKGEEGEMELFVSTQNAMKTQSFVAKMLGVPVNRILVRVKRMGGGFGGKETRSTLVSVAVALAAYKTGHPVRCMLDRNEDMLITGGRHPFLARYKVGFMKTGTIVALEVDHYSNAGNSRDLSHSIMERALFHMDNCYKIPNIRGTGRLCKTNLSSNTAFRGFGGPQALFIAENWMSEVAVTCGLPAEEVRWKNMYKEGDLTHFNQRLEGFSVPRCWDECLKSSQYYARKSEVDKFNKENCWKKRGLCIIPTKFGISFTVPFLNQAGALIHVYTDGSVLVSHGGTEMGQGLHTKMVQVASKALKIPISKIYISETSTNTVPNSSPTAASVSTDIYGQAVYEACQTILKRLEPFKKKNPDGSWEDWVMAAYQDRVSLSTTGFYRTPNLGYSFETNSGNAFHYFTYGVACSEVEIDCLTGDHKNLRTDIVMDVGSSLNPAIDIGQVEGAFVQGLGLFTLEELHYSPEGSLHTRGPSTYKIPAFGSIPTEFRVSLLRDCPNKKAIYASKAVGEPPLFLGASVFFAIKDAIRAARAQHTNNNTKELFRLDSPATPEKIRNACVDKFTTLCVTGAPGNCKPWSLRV

## COc1cc(/C=N/N=C/c2ccc(O)c(OC)c2)ccc1O [C, Bis[4-hydroxy-3-methoxybenzaldehyde]-trans,trans-azine]
Jurkat cells
  Cytotox (MTT/Jurkat): 0
Xanthine oxidase
  Xanthine Oxidase Inhibition IC50 (Integral): No Effect
[1]; [4]
  IC50: 4.9 µM
[1]
  inhibition at 50 µM: 85.6%
[2]
  inhibition of secretion of TNF: did not inhibit
[3]
  inhibition of secretion of IL-1: did not inhibit
neutrophils
  effect on chemotaxis of neutrophils: no effect

## Oc1ccc(/C=N/N=C/c2ccc(O)c(O)c2)cc1O [Example 12, Bis[3,4 - Dihydroxybenzaldehyde]trans,trans-Azine]
Jurkat cells
  Cytotox (MTT/Jurkat): 1 (dead cells and >50% reduction in MTT absorbance were observed at 100 μM of the test compound)
Xanthine oxidase
  IC50: 1.1 µM
[1]; [4]
  IC50: 7.3 µM

## COc1cccc(/C=N/N=C/c2cccc(OC)c2O)c1O [A, Bis[3-methoxy-2-hydroxybenzaldehyde]trans,trans-azine]
Jurkat cells
  Cytotox (MTT/Jurkat): 0
Xanthine oxidase
  Xanthine Oxidase Inhibition IC50 (Integral): No Effect
[1]
  inhibition at 50 µM: 1.1%
[1]; opsonized zymosan, lucigenin, 37° C., 14 min
  Neutrophil Burst IC50 (Lucigenin): No Effect

## COc1ccc(N=Cc2ccc(O)c(OC)c2)cc1 [Example 17, N-(3-Methoxy-4-Hydroxybenzylidene)-p-Methoxyaniline]
Jurkat cells
  Cytotox (MTT/Jurkat): 0
Xanthine oxidase
  Xanthine Oxidase Inhibition IC50 (Integral): No Effect
[1]; [4]
  IC50: 3.1 µM

## COc1cc(/C(C)=N/N=C(\C)c2ccc(O)c(OC)c2)ccc1O [Example 7, Bis[4-Hydroxy-3-Methoxyacetophenone]trans,trans-Azine]
Jurkat cells
  Cytotox (MTT/Jurkat): 1 (dead cells and >50% reduction in MTT absorbance were observed at 100 μM of the test compound)
Xanthine oxidase
  Xanthine Oxidase Inhibition IC50 (Integral): No Effect
[1]; [4]
  IC50: 33.1 µM

## COc1ccc(N=Cc2cc(OC)c(O)c(OC)c2)cc1 [Example 18, N-(3,5-Dimethoxy-4-Hydroxybenzylidene)-p-Methoxyaniline]
Jurkat cells
  Cytotox (MTT/Jurkat): 0
Xanthine oxidase
  IC50: 32 µM
[1]; [4]
  IC50: 5 µM
